# According to ChEMBL document CHEMBL1201862, “PubChem BioAssay data set” (2004):
# The source made the active and inactive calls.
# How the values were obtained:
# [1] = target: T1, Beta-lactamase (Pseudomonas aeruginosa, UniProt Q79MP6); assay: […] counterscreen for selective VIM-2 inhibitors: dose response biochemical high throughput screening assay to identify inhibitors of IMP-1 metallo-beta-lactamase.
# [2] = target: T1, Beta-lactamase; assay: inhibition of IMP-1 beta-lactamase activity – biochemical, epi-absorbance, selectivity assay for VIM-2 inhibitor project, dose response (AID 1920)
# [3] = target: Beta-lactamase (Salmonella choleraesuis (strain SC-B67), UniProt Q5J463); assay: Epi-absorbance-based counterscreen for selective VIM-2 inhibitors: dose response biochemical high throughput screening assay to identify inhibitors of TEM-1 serine-beta-lactamase.
# [4] = target: T2, Small ubiquitin-related modifier 1 (Homo sapiens, UniProt P63165); assay: SUMO1 protein interaction blockers, potency – biochemical, fluorescence polarization, uHTS hits, dose response (AID 624382); type: functional; conditions: read-out: IC50_Mean
# [5] = viability of uninfected HEp-2 cells – cell-based, HTS, cytotoxicity control for RSV inhibitor project, dose response (AID 2410); type: functional; conditions: human respiratory syncytial virus
# [6] = target: T2, Small ubiquitin-related modifier 1; assay: SUMO1 protein-protein binding blockers, potency – biochemical, FRET, dose response (AID 624383); type: functional; conditions: read-out: IC50_Mean
# [7] = target: T3, Fructose-bisphosphate aldolase (Mycobacterium tuberculosis, UniProt P9WQA3); assay: Fluorescence-based biochemical high throughput dose response assay for inhibitors of the fructose-bisphosphate aldolase (FBA) of M. tuberculosis.; type: functional
# T3 sequence (P9WQA3 whole entry): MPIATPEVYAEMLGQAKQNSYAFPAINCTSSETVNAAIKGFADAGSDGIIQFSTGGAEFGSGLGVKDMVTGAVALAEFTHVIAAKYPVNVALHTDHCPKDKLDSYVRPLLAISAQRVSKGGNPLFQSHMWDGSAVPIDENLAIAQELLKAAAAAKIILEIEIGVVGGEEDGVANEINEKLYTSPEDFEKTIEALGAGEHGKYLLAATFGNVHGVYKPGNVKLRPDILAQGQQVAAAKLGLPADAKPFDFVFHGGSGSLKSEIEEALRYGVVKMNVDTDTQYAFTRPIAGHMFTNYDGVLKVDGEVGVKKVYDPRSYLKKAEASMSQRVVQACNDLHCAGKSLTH
# [8] = target: Beta-galactosidase (Escherichia coli, UniProt Q8VNN2); assay: Dose response counterscreen for EBI2 assay utilizing the enzyme, b-galactosidase.; type: functional
# [9] = target: T4, Heat shock factor protein 1 (Mus musculus, UniProt P38532); assay: decrease of HSF1-responsive luciferase luminescence – cell-based, NIH3T3, dose retest, confirmation (AID 2382); type: functional;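 note: NIH3T3 fibroblasts with HSF1-driven luciferase reporter stressed by proteasome inhibitor MG132; luminescence from HSF1-driven luciferase expression after 8 hours of MG132 stress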
# T4 sequence (P38532 whole entry): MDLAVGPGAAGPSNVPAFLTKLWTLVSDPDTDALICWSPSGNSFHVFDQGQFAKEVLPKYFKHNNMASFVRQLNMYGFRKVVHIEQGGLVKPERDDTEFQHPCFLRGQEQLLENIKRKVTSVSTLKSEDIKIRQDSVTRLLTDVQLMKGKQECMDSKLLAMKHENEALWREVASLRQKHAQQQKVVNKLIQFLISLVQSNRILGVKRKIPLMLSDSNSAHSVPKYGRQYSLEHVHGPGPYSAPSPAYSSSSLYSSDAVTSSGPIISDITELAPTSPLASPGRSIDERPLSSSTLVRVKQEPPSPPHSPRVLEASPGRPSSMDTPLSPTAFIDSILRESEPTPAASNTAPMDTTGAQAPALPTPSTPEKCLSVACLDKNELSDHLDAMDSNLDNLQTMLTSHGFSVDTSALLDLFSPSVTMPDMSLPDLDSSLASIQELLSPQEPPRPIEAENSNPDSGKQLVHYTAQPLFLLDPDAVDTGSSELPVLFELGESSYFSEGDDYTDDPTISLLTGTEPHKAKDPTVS
# [10] = Counterscreen for inhibitors of Trypanosoma brucei methionyl tRNA synthetase (MetRS): Luminescence-based cell-based high throughput dose response assay to identify compounds that are cytotoxic to Jurkat human T lymphocyte cells.; type: functional
# [11] = target: T5, Methionyl-tRNA synthetase, putative (Trypanosoma brucei brucei, UniProt Q38C91); type: functional, Trypanosoma brucei brucei strain 927/4 GUTat10.1
# T5 sequence (Q38C91 whole entry): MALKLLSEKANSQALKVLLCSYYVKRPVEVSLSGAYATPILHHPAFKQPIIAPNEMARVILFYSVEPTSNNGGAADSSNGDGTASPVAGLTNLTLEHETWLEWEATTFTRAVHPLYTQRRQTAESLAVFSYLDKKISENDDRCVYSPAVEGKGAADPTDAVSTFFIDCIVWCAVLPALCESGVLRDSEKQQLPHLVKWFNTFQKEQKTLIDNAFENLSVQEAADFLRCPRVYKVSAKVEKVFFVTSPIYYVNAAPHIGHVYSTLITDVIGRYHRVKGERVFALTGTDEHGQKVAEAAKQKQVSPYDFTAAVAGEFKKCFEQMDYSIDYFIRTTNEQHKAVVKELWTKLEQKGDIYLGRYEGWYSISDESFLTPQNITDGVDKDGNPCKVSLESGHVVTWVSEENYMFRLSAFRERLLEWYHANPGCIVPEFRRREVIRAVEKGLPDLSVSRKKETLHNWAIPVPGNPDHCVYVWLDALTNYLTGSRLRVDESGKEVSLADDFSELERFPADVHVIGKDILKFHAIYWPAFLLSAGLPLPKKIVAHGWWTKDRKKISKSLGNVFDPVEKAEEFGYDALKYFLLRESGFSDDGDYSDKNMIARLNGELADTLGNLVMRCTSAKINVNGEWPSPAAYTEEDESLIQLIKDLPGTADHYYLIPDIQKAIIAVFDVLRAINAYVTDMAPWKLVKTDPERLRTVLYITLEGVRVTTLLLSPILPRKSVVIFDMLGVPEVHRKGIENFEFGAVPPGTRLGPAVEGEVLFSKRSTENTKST
# [12] = target: T5, Methionyl-tRNA synthetase, putative; type: functional, Trypanosoma brucei brucei strain 927/4 GUTat10.1; remark: listed apart in the source
# [13] = viability loss in HeLa cells – cytotoxicity control for MgcRacGAP inhibitor project, dose response (AID 624300); type: functional
# [14] = target: Large T antigen (Simian virus 40, UniProt P03070); type: functional, Betapolyomavirus macacae;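 note: Confirmatory-stage PubChem screen for compounds that inhibit SV40 T antigen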
# [15] = target: T6, Rac GTPase-activating protein 1 (Homo sapiens, UniProt Q9H0H5); assay: blockers of MgcRacGAP-driven Rac1 GTP hydrolysis – biochemical, ADP Hunter fluorescence, primary and confirmatory, confirmation (AID 624330); type: functional
# T6 sequence (Q9H0H5 whole entry): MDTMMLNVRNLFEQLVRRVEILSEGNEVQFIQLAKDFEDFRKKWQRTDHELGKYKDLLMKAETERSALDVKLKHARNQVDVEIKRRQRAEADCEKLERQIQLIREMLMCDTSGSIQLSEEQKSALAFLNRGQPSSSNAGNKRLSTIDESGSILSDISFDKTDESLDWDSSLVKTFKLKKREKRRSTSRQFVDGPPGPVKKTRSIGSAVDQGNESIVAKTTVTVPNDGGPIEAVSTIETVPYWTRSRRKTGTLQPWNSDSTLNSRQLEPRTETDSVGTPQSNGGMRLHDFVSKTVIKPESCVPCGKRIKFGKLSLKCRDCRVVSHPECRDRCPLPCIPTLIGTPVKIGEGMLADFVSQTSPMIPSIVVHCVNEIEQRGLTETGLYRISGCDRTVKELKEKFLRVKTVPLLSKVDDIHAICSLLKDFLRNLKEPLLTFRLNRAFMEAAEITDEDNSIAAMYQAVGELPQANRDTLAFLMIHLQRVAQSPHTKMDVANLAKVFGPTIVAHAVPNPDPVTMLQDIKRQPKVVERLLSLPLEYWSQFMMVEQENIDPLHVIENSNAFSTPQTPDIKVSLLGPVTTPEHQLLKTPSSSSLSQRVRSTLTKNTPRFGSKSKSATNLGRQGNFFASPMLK
# [16] = target: T7, High affinity choline transporter 1 (Homo sapiens, UniProt Q9GZV3); assay: human choline transporter blockers, potency – cell-based, 5-point CRC, membrane potential dye, dose response (AID 504840); type: functional
# T7 sequence (Q9GZV3 whole entry): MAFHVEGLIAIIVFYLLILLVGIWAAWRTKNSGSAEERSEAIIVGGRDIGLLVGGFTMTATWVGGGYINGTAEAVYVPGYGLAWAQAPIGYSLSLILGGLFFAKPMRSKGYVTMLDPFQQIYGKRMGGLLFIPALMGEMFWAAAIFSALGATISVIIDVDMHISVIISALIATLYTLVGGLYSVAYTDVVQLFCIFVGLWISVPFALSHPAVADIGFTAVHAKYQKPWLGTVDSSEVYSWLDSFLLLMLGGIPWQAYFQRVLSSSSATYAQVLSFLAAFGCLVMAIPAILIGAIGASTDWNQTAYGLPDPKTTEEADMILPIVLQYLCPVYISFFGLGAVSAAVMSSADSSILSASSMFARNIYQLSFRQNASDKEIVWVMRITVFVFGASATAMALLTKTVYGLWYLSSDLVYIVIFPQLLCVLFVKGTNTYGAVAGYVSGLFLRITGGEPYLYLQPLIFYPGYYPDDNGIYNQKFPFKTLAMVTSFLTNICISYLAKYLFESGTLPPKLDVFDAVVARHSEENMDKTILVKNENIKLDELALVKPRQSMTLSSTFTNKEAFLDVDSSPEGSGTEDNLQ
# [17] = tested on: Vero; assay: cells; type: functional; conditions: Chlorocebus sabaeus
# [18] = intracellular Trypanosoma cruzi inhibitors in host cells – cell-based, plate reader, cherry-pick samples, set 3, dose response (AID 651818); type: functional;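 note: compounds incubated with infected cells for about four days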
# [19] = target: Luciferin 4-monooxygenase (Photinus pyralis, UniProt P08659); assay: inhibition of purified Photinus pyralis luciferase – biochemical, luminescence, dose response (AID 1891)
# [20] = Luminescence Cell-Based Dose Confirmation HTS to Identify Inhibitors of Platelet Dense Granule Release. [Related pubchem assays: 1663 (Primary HTS), 1678 (Summary of Project)]; type: functional
# T1 sequence (Q79MP6 whole entry): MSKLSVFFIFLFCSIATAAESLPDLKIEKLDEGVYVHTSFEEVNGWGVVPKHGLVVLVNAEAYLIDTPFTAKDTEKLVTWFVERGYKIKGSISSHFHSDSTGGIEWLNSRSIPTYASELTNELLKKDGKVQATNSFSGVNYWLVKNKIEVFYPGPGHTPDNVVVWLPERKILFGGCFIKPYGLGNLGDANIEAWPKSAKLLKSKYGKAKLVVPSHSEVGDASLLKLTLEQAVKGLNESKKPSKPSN
# Sequence of Beta-galactosidase (Q8VNN2 whole entry): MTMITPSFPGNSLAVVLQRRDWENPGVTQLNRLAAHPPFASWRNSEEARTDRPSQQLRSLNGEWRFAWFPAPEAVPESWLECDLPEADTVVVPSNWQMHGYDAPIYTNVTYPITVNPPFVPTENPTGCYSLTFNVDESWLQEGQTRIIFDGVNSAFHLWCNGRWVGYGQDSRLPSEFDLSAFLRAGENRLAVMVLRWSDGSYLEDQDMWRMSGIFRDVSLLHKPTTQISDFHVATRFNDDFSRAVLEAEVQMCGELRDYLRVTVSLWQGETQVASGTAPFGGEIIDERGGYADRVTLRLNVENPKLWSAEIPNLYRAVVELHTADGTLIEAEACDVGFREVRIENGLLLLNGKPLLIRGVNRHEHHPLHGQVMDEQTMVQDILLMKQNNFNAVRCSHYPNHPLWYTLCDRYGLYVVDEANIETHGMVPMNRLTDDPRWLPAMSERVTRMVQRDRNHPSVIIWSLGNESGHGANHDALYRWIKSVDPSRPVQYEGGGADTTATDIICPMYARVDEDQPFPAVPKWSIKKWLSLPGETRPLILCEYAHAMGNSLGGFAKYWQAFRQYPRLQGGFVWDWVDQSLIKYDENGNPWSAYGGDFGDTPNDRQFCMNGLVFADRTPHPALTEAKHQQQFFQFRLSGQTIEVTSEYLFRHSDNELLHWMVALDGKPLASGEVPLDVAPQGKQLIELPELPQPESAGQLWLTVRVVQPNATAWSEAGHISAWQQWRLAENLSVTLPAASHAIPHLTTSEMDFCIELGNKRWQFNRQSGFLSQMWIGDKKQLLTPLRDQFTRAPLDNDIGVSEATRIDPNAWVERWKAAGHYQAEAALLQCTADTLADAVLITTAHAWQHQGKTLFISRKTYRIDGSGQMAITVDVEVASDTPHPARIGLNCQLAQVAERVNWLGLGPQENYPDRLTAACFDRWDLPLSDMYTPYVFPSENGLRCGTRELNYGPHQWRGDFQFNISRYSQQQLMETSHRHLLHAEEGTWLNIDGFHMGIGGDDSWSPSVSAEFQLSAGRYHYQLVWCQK
# T2 sequence (P63165 whole entry): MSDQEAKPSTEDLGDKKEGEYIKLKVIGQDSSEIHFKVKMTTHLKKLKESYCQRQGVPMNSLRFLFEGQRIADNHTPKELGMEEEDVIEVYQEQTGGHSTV
# Sequence of Beta-lactamase (Salmonella choleraesuis (strain SC-B67), UniProt Q5J463) (Q5J463 whole entry): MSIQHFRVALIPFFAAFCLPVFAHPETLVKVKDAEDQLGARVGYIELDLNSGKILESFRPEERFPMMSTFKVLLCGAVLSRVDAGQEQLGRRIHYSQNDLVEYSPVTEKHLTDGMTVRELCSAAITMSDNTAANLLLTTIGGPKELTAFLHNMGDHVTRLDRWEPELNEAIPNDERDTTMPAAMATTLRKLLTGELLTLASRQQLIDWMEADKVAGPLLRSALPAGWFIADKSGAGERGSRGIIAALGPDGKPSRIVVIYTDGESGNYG
# Sequence of Large T antigen (P03070 whole entry): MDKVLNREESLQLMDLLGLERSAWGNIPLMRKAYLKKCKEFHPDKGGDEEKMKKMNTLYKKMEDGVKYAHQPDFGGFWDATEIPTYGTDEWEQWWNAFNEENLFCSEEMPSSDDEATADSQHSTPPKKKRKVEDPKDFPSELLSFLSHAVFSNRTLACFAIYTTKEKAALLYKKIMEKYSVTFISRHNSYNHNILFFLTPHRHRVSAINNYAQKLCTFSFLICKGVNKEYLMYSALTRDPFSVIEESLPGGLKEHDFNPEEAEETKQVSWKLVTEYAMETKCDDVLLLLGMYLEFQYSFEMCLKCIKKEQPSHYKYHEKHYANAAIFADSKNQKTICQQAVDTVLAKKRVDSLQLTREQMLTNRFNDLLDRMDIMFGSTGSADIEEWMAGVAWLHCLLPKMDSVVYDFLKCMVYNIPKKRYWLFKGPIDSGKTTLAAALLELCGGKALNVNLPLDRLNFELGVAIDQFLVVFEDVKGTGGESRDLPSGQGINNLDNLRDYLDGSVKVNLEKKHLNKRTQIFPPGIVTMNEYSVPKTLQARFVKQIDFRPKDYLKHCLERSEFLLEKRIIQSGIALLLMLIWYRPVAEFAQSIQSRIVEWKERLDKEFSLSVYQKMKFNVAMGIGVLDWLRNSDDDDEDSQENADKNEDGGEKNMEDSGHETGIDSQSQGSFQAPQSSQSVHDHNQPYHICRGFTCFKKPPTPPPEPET
# Sequence of Luciferin 4-monooxygenase (P08659 whole entry): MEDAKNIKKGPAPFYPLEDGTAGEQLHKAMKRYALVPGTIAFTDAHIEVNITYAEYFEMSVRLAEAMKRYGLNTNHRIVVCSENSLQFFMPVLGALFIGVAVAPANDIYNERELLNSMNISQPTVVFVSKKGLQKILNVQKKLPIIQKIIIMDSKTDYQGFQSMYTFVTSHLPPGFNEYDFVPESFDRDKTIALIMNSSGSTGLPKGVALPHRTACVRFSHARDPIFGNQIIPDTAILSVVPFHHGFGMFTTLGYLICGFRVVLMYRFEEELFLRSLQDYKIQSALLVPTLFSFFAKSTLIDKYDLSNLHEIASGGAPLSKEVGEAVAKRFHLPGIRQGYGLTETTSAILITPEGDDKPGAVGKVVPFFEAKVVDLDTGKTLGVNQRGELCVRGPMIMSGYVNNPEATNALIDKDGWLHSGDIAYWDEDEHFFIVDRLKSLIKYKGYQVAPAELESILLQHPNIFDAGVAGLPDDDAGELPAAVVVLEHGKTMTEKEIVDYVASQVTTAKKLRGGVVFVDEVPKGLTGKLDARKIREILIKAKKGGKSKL
structure (smiles),measurement,setting,value
O=C(O)C1Sc2[nH]c(=O)sc2C2c3cc(Cl)ccc3OC(=O)C12 (centres undefined),IC50,[1],> 59.6 µM (inactive)
same,IC50,[2],> 59.6 µM (inactive)
same,IC50,[3],> 59.6 µM (inactive)
O=C(CSc1nnc(NC(=O)c2cccc(F)c2)s1)NCc1ccco1,IC50,[1],> 59.6 µM (inactive)
same,IC50,[2],> 59.6 µM (inactive)
same,IC50,[3],> 59.6 µM (inactive)
CCCCCCC(=O)Nc1nc(C)c(-c2csc(Nc3cccc(OC)c3)n2)s1,IC50,[4],> 66.6 µM (inactive)
same,CC50,[5],18.4 µM (active)
same,IC50,[6],12.9 µM (active)
CCc1cc(=O)oc2c(C)c(OCC(=O)N3CCC[C@@H]3C(=O)O)ccc12,IC50,[1],> 59.6 µM (inactive)
same,IC50,[7],1.65 µM (active)
same,IC50,[2],> 59.6 µM (inactive)
same,IC50,[3],> 59.6 µM (inactive)
CCOc1ccc(NC(S)=Nc2ccc(OC(F)(F)F)cc2)cc1,IC50,[8],> 80 µM (inactive)
same,EC50,[9],> 195 µM (not active)
Clc1ccc2[nH]c(C3CCN(Cc4nnnn4C4CCCCC4)CC3)nc2c1,IC50,[10],14.5 µM (inactive)
Clc1ccc2nc(C3CCN(Cc4nnnn4C4CCCCC4)CC3)[nH]c2c1,IC50,[11],2.91 µM (active)
same,IC50,[12],7.33 µM (active)
O=C1ON=C(c2ccccc2)/C1=C/c1ccc(O)c(O)c1,CC50,[13],73.7 µM (active)
same,IC50,[14],5.22 µM (active)
same,IC50,[15],60 µM (active)
same,IC50,[16],4.37 µM (active)
CCOc1cc(/C=C2\C(=O)ON=C2c2ccccc2)cc(Br)c1O,CC50,[13],100 µM (active)
same,IC50,[15],61.2 µM (active)
same,CC50,[17],17.8 µM (active)
COc1ccc(C(=O)Nc2ccc(C(=O)Nc3nccs3)cc2)cc1[N+](=O)[O-],IC50,[4],> 66.6 µM (inactive)
same,IC50,[6],9.87 µM (active)
O=C(c1cc2cc(Cl)ccc2[nH]1)N1CCN(c2ccc(F)cc2)CC1,IC50,[8],> 80 µM (inactive)
COc1ccc(N2CCN(C(=O)c3cc(=O)c4cc(Cl)ccc4o3)CC2)cc1,IC50,[8],> 80 µM (inactive)
C[C@H](O)[C@@H]1C(=O)N2CCc3c([nH]c4ccccc34)[C@@H]2C[C@@H]1N(C)Cc1ccc(Cl)cc1,IC50,[10],57.9 µM (inactive)
same,IC50,[11],0.974 µM (active)
same,IC50,[12],1.49 µM (active)
C[C@H]1CN([C@@H](C)CO)C(=O)c2cccc(NC(=O)c3ccncc3)c2O[C@@H]1CN(C)CC1CCCCC1,AC50,[18],0.365 µM (active)
C[C@H](CO)N1C[C@H](C)[C@@H](CN(C)CC2CC2)Oc2c(NC(=O)Nc3ccc4c(c3)OCO4)cccc2C1=O,AC50,[18],20 µM (inactive)
Cc1ccc(S(=O)(=O)N(C)C[C@H]2Oc3c(NC(=O)c4ccc(-c5nccs5)cc4)cccc3C(=O)N([C@H](C)CO)C[C@@H]2C)cc1,AC50,[18],8.72 µM (active)
O=C(Nc1ccccc1C(=O)N/N=C/c1ccc(O)cc1)c1ccccc1,EC50,[19],0.184 µM (active)
same,CC50,[13],39.5 µM (active)
same,IC50,[15],220 µM (active)
same,EC50,[20],3.65 µM (active)
